Reference: patent US6818612B2, “Use of parvovirus capsid particles in the inhibition of cell proliferation and migration” (priority 1998, dated 2004)

Tests used:
[1] = tested on: hematopoietic cells obtained from the bone marrow of monkeys; experiment: Colony formation assay on monkey bone marrow cells (Baboon); format: cell-based; conditions: FIG. 2, varying concentrations of capsid
Description: (§1) Additionally, colony formation assays in the presence of B19 parvovirus […] were performed, as described above, using hematopoietic cells obtained from the bone marrow of monkeys (Baboons and Macaques).

[2] = tested on: human fetal liver cells; experiment: Colony formation assay (Stem cell CFU kit, 11 day) of fetal liver cells; format: cell-based
From the text: In a first set of experiments, it was discovered that B19 parvovirus capsids inhibit hematopoiesis and that these molecules could be used to reduce the overproduction of red blood cells, white blood cells, and blood platelets, as is experienced by patients suffering from hematological proliferative diseases, such as Polycytemia Vera. (See FIG. 1A). In a first set of experiments, fresh human fetal liver cells, umbilical cord blood cells, and bone marrow cells were contacted with recombinant B19 parvovirus capsids in a colony formation assay. The general features of a colony formation assay are depicted in FIG. 1B. The ability of the B19 parvovirus capsids to inhibit hematopoiesis was verified by the reduction of colony formation in the presence of the capsids, as compared to untreated control populations of cells. A more detailed description of these experiments is provided below.
To obtain fetal liver tissue, human fetuses 6-12 weeks of gestational age were obtained from legal abortions; the patients had volunteered to donate fetal tissue. Gestational age was estimated according to specific anatomical markers and is given as menstruational age. Abortions were performed with vacuum aspirations. Fetal liver was dissected under sterile conditions, placed in a sterile tube containing RPMI1640 and disintegrated by passage through a vinyl mesh to form a single cell suspension. Nucleated cells were then washed three times, counted and diluted in culture medium.
(§2) A commercial kit—the “Stem cell CFU kit” (GIBCO BRL, Life Technology Inc., NY, USA)—was used to perform the colony formation assays. The kit provides a semi-solid support that mimics the extracellular matrix produced by stromal cells. Other components included in the kit are: Iscove's modified Dulbecco's medium, modified fetal bovine serum, methylcellulose, 2-mercaptoethanol, conditioned medium and erythropoietin. The colonies that were formed in the assay were identified as BFU-E (burst forming unit-erythroid cells) with densely packed hemoglobonized cells, CFU-GM (colony forming units-granulocytes, macrophages) with arrangements of non-hemoglobinized cells, and CFU-GEMM (colony forming units-granulocytes, erythroid cells, macrophages, megakaryocytes) with hemoglobinized cells and small and large peripheral cells.
(§3) Recombinant B19 parvovirus empty capsid particles (Kajigaya et al., Proc Natl Acad Sci USA, 88:4646 (1991)) were prepared in a recombinant baculovirus-insect cell (Spodofera frugiperda) expression system. (Kajigaya et al., Proc Natl Acad Sci USA, 88:4646 (1991)). The isolated or purified capsids were diluted in buffer (20 mM Tris, 0.5M NaCl, pH 8.5) and 30 μL of each dilution was added to approximately 25×10^3 cells (50×10^3 for postnatal cells) in 100 μL of culture medium and incubated for 1 hour at 4° C. The mixtures were then transferred to incubation dishes and culture medium was added to a final volume of 0.5 ml per well. The cells were then incubated for 11 days in a humidified atmosphere at 5% CO2, and were scored for BFU-E, CFU-GM and CFU-GEMM derived colony formation.

[3] = tested on: umbilical cord blood cells; experiment: Colony formation assay on cord blood cells; format: cell-based, human; conditions: for Colony Counts (% of medium control) BFU-E / Colony Counts (% of medium control) CFU-GEMM / Colony Counts (% of medium control) CFU-GM: Cord blood cells, 11 day culture
From the text: as §2, §3
(§4) The inhibitory effect of B19 parvovirus capsids on colony formation was also tested using fresh stem cells derived from cord blood and adult bone marrow samples. Colony formation assays in the presence of B19 parvovirus capsids were performed on cells obtained from umbilical cord blood and bone marrow using the protocol described above. Umbilical cord blood samples were obtained immediately after vaginal delivery from normal births. Samples of adult bone marrow were obtained from healthy allogeneic donors. Suspensions of fresh cells were heparinized and diluted in 0.9% NaCl and separated on Lymphoprep (Nycomed, Parma, Oslo, Norway) for gradient centrifugation at 2000 rpm for 20 min. Cells were carefully removed with a Pasteur pipette, washed three times in 0.9% NaCl, counted and diluted in culture medium in preparation for the colony formation assays.

[4] = tested on: adult bone marrow cells; experiment: Colony formation assay on adult bone marrow cells; format: cell-based, human; conditions: for Colony Counts (% of medium control) BFU-E / Colony Counts (% of medium control) CFU-GEMM / Colony Counts (% of medium control) CFU-GM: Bone marrow cells, 11 day culture
From the text: as §2, §3, §4

[5] = tested on: hematopoietic cells obtained from the bone marrow of monkeys; experiment: Colony formation assay on monkey bone marrow cells (Macaque); format: cell-based; conditions: FIG. 2, varying concentrations of capsid
Description: as §1

[6] = capsid only, B19 parvovirus capsid 0.14 μg/ml, fetal liver cells, 11 day culture
[7] = capsid only, B19 parvovirus capsid 7 μg/ml, fetal liver cells, 11 day culture
[8] = fetal liver cells, 0.07 μg/ml VP1/2 capsid, FIG. 3
[9] = fetal liver cells, B19 parvovirus capsid 0.007 μg/ml, 11 day culture
[10] = fetal liver cells, B19 parvovirus capsid 0.7 μg/ml, 11 day culture
[11] = fetal liver cells, B19 parvovirus capsid 70.0 μg/ml, pre-incubated prior to 11 day culture
[12] = B19 parvovirus capsid 0.0007 μg/ml
[13] = B19 parvovirus capsid 0.007 μg/ml
[14] = B19 parvovirus capsid 0.07 μg/ml
[15] = B19 parvovirus capsid 0.7 μg/ml
[16] = B19 parvovirus capsid 7.0 μg/ml
[17] = compared with fetal liver cells

B19 parvovirus capsid: Recombinant empty B19 parvovirus capsid particles (95% VP2, 5% VP1) from a baculovirus-insect cell expression system
primate hematopoietic cell growth [1]: decreased in concordance with an increase in concentration of B19 parvovirus capsid | inhibition of fetal liver cell colony formation ([2]; B19 parvovirus capsids 0.14 μg/ml, in the absence of sera): significantly inhibited | Colony Counts (% of medium control) BFU-E [2, 6]: 18% of medium control | Colony Counts (% of medium control) CFU-GEMM [2, 6]: 63% of medium control | Colony Counts (% of medium control) CFU-GM [2, 6]: 17% of medium control | Colony Counts (% of medium control) BFU-E [2, 7]: 43% of medium control | Colony Counts (% of medium control) CFU-GEMM [2, 7]: 21% of medium control | Colony Counts (% of medium control) CFU-GM [2, 7]: 30% of medium control | colony formation, % of the medium control [2, 8]: ~60 % of the medium control | inhibition of colony formation [2, 8]: approximately 40% | inhibition of colony formation of hematopoietic cells ([2]; fetal liver cells, 70.0 μg/ml B19 parvovirus capsid): considerable inhibition | lowest concentration at which inhibition of colony formation of hematopoietic cells was seen ([2]; fetal liver cells, 11 day colony formation assay, 'as little as' / 'as low as'): 0.007 µg/mL | Colony Counts (% of medium control) BFU-E [2, 9]: 79% of medium control | Colony Counts (% of medium control) CFU-GEMM [2, 9]: 94% of medium control | Colony Counts (% of medium control) CFU-GM [2, 9]: 95% of medium control | Colony Counts (% of medium control) BFU-E [2, 10]: 39% of medium control | Colony Counts (% of medium control) CFU-GEMM [2, 10]: 63% of medium control | Colony Counts (% of medium control) CFU-GM [2, 10]: 54% of medium control | Colony Counts (% of medium control) BFU-E [2, 11]: 22% of medium control | Colony Counts (% of medium control) CFU-GEMM [2, 11]: 31% of medium control | Colony Counts (% of medium control) CFU-GM [2, 11]: 14% of medium control | Colony Counts (% of medium control) BFU-E [3, 12]: 84% of medium control | Colony Counts (% of medium control) CFU-GEMM [3, 12]: 93% of medium control | Colony Counts (% of medium control) CFU-GM [3, 12]: 79% of medium control | Colony Counts (% of medium control) BFU-E [3, 13]: 57% of medium control | Colony Counts (% of medium control) CFU-GEMM [3, 13]: 70% of medium control | Colony Counts (% of medium control) CFU-GM [3, 13]: 67% of medium control | Colony Counts (% of medium control) BFU-E [3, 14]: 49% of medium control | Colony Counts (% of medium control) CFU-GEMM [3, 14]: 50% of medium control | Colony Counts (% of medium control) CFU-GM [3, 14]: 72% of medium control | Colony Counts (% of medium control) BFU-E [3, 15]: 33% of medium control | Colony Counts (% of medium control) CFU-GEMM [3, 15]: 43% of medium control | Colony Counts (% of medium control) CFU-GM [3, 15]: 62% of medium control | Colony Counts (% of medium control) BFU-E [3, 16]: 10% of medium control | Colony Counts (% of medium control) CFU-GEMM [3, 16]: 43% of medium control | Colony Counts (% of medium control) CFU-GM [3, 16]: 54% of medium control | growth of cells obtained from human cord blood ([3]; FIG. 1C, varying concentrations of capsid): decreased as the concentration of B19 parvovirus capsid increased | ability to inhibit hematopoietic cells obtained from cord blood [3, 17]: comparable to that exhibited with fetal liver cells | Colony Counts (% of medium control) BFU-E [4, 12]: 86% of medium control | Colony Counts (% of medium control) CFU-GEMM [4, 12]: 78% of medium control | Colony Counts (% of medium control) CFU-GM [4, 12]: 77% of medium control | Colony Counts (% of medium control) BFU-E [4, 13]: 76% of medium control | Colony Counts (% of medium control) CFU-GEMM [4, 13]: 78% of medium control | Colony Counts (% of medium control) CFU-GM [4, 13]: 80% of medium control | Colony Counts (% of medium control) BFU-E [4, 14]: 63% of medium control | Colony Counts (% of medium control) CFU-GEMM [4, 14]: 44% of medium control | Colony Counts (% of medium control) CFU-GM [4, 14]: 41% of medium control | Colony Counts (% of medium control) BFU-E [4, 15]: 43% of medium control | Colony Counts (% of medium control) CFU-GEMM [4, 15]: 28% of medium control | Colony Counts (% of medium control) CFU-GM [4, 15]: 45% of medium control | Colony Counts (% of medium control) BFU-E [4, 16]: 18% of medium control | Colony Counts (% of medium control) CFU-GEMM [4, 16]: 6% of medium control | Colony Counts (% of medium control) CFU-GM [4, 16]: 36% of medium control | ability to inhibit hematopoietic cells obtained from bone marrow [4, 17]: comparable to that exhibited with fetal liver cells | primate hematopoietic cell growth [5]: decreased in concordance with an increase in concentration of B19 parvovirus capsid
